Laboratory results as given in ChEMBL document CHEMBL4699570, “Design, synthesis and biological evaluation of novel c-Met/HDAC dual inhibitors” (Bioorg Med Chem Lett, 2020).

Tests used:
A549 = experiment: Antiproliferative against human A549 cells assessed as reduction in cell viability by MTT assay; format: functional, cell-based
Histone deacetylase 1 [1] = target: T1, Histone deacetylase 1 (Homo sapiens, UniProt Q13547); experiment: Inhibition of HDAC1 (unknown origin)
[2] = target: T2, Hepatocyte growth factor receptor (Homo sapiens, UniProt P08581); conditions: dose 100.0 nM
Description: Inhibition of c-MET (unknown origin) at 100 nM relative to control

MCF7 = experiment: Antiproliferative against human MCF-7 cells assessed as reduction in cell viability by MTT assay; format: functional, cell-based
[3] = target: T2, Hepatocyte growth factor receptor; experiment: Inhibition of c-MET (unknown origin)
Histone deacetylase 1 [4] = target: T1, Histone deacetylase 1; conditions: dose 100.0 nM
Description: Inhibition of HDAC1 (unknown origin) at 100 nM relative to control

T1 sequence (Q13547 whole entry): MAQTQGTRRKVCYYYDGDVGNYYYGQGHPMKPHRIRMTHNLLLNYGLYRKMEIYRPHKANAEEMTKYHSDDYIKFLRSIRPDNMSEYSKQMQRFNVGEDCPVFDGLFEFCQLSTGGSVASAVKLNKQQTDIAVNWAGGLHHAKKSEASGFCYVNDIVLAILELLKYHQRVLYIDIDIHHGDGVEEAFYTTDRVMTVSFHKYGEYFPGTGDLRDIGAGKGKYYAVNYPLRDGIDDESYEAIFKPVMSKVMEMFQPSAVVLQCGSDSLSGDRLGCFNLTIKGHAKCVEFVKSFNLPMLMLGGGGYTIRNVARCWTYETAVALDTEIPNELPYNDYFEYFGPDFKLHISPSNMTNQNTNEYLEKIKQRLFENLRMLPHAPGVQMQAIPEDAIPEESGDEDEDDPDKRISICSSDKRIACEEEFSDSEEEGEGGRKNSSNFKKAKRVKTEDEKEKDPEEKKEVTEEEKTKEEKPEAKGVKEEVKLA
T2 sequence (P08581 whole entry): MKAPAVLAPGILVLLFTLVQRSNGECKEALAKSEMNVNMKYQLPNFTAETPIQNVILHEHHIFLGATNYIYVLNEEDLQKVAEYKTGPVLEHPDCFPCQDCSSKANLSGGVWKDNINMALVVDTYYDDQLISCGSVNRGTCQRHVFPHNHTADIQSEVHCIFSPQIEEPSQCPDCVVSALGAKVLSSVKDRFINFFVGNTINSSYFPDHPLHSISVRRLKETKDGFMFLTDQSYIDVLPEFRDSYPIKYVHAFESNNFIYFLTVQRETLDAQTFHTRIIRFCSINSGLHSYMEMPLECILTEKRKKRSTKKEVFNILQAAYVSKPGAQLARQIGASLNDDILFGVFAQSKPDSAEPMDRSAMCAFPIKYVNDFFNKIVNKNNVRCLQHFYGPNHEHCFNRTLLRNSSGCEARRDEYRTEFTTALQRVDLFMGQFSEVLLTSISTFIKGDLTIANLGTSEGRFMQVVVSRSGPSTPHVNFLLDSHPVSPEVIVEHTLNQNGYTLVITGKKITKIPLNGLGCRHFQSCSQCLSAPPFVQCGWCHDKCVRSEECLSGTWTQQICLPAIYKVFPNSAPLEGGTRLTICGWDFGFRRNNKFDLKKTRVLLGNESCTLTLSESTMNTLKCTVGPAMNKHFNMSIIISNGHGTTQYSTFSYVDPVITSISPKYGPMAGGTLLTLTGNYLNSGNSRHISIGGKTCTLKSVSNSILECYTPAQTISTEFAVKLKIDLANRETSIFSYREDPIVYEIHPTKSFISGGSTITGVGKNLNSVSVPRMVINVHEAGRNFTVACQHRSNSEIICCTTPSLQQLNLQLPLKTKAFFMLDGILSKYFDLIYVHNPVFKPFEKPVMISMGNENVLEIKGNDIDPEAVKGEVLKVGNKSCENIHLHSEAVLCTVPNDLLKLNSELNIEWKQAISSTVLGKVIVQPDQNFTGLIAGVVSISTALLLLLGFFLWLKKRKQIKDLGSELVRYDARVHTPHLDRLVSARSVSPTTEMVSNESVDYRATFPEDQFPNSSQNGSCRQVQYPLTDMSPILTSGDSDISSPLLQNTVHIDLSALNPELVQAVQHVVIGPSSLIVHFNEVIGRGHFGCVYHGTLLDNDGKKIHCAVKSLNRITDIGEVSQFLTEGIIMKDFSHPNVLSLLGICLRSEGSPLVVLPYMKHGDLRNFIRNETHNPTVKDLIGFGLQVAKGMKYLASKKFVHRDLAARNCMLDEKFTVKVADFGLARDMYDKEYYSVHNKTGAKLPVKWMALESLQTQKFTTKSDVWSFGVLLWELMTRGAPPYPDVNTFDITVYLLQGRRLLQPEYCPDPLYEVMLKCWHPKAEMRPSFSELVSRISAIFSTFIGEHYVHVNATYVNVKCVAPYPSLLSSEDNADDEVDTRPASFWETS

| SMILES | IC50 (A549) [µM] | IC50 (Histone deacetylase 1 [1]) [µM] | inhibition [2] [%] | IC50 (MCF7) [µM] | IC50 [3] [µM] | inhibition (Histone deacetylase 1 [4]) [%] |
| --- | --- | --- | --- | --- | --- | --- |
| COc1cc2c(Oc3ccc(NC(=O)Nc4ccc(C(F)(F)F)cc4Cl)cc3)ccnc2cc1OCCCCCCC(=O)NO | 0.97 | 0.148 | 93.1 | 0.5 | 0.0412 | 28.1 |
| COc1cc2c(Oc3ccc(NC(=O)Nc4ccccc4C(F)(F)F)cc3)ccnc2cc1OCCCCCCC(=O)NO | 5.28 | – | 28.6 | 1.08 | – | 76.6 |
| COc1cc2c(Oc3ccc(NC(=O)NNC(=O)c4ccccc4F)cc3)ccnc2cc1OCCCCCCC(=O)NO | 2.42 | – | 81.4 | 3.6 | – | 28.7 |
| COc1cc2c(Oc3ccc(NC(=O)NNC(=O)c4ccccc4)cc3)ccnc2cc1OCCCCCCC(=O)NO | 2.82 | – | 38.5 | 2.45 | – | 34.4 |
| COc1cc2c(Oc3ccc(NC(=O)Nc4ccc(Cl)c(C(F)(F)F)c4)cc3)ccnc2cc1OCCCCCCC(=O)NO | 5.02 | – | 94.8 | 5.15 | – | 40.9 |
| COc1cc2nccc(Oc3ccc(NC(=O)C4(C(=O)Nc5ccc(F)cc5)CC4)cc3)c2cc1OC [CABOZANTINIB] | 7.21 | – | – | 5.4 | – | 20.9 |
| COc1cc2c(Oc3ccc(NC(=O)N/N=C/c4ccc(F)cc4)cc3)ccnc2cc1OCCCCCCC(=O)NO | 4.92 | – | 24.2 | 1.36 | – | 56.1 |
| COc1cc2c(Oc3ccc(NC(=O)N/N=C/c4ccccc4)cc3)ccnc2cc1OCCCCCCC(=O)NO | 3.7 | – | 75.9 | 0.61 | – | – |
| COc1cc2c(Oc3ccc(NC(=O)NNC(=O)c4cccc(C)c4)cc3)ccnc2cc1OCCCCCCC(=O)NO | 8.19 | – | 29.9 | 5.83 | – | 67.6 |
| COc1cc2c(Oc3ccc(NC(=O)N/N=C/c4ccccc4F)cc3)ccnc2cc1OCCCCCCC(=O)NO | 7.78 | – | 81.5 | 1.61 | – | 10.4 |
| COc1cc2c(Oc3ccc(NC(=O)C4(C(=O)Nc5ccc(F)cc5)CC4)cc3F)ccnc2cc1OCCCN1CCOCC1 [FORETINIB] | 0.91 | – | – | 0.56 | – | 38.6 |
| COc1cc2c(Oc3ccc(NC(=O)Nc4ccc(OC(F)(F)F)cc4)cc3)ccnc2cc1OCCCCCCC(=O)NO | 3.13 | – | 29.8 | 3.2 | – | 11.7 |

Continued, values first:

| IC50 (A549) [µM] | IC50 (Histone deacetylase 1 [1]) [µM] | inhibition [2] [%] | IC50 (MCF7) [µM] | IC50 [3] [µM] | inhibition (Histone deacetylase 1 [4]) [%] | SMILES |
| --- | --- | --- | --- | --- | --- | --- |
| 0.87 | 0.131 | 95.5 | 0.66 | 0.0392 | 32.1 | COc1cc2c(Oc3ccc(NC(=O)Nc4ccccc4F)cc3)ccnc2cc1OCCCCCCC(=O)NO |
| 16.2 | – | 31.9 | 6.28 | – | – | COc1ccccc1NC(=O)Nc1ccc(Oc2ccnc3cc(OCCCCCCC(=O)NO)c(OC)cc23)cc1 |
| 1.65 | 0.075 | 48 | 1.04 | 0.017 | 23.1 | COc1cc2c(Oc3ccc(NC(=O)Nc4ccccc4)cc3)ccnc2cc1OCCCCCCC(=O)NO |
| 0.85 | 0.0452 | 38 | 0.6 | 0.0214 | 14.1 | COc1cc2c(Oc3ccc(NC(=O)NC4CCCCC4)cc3)ccnc2cc1OCCCCCCC(=O)NO |
| 9.04 | – | 14.3 | 4.12 | – | 88 | COc1cc2c(Oc3ccc(NC(=O)NCCc4ccccc4)cc3)ccnc2cc1OCCCCCCC(=O)NO |
| 1.91 | – | 30.4 | 2.78 | – | 45.2 | COc1cc2c(Oc3ccc(NC(=O)Nc4ccccc4Cl)cc3)ccnc2cc1OCCCCCCC(=O)NO |
| 5.49 | – | 44.7 | 3.43 | – | 26.4 | COc1cc2c(Oc3ccc(NC(=O)Nc4ccc(C)cc4C)cc3)ccnc2cc1OCCCCCCC(=O)NO |
| 2.01 | – | 25.7 | 1.24 | – | 66.6 | COc1cc2c(Oc3ccc(NC(=O)Nc4cccc(C)c4)cc3)ccnc2cc1OCCCCCCC(=O)NO |
